Consider twelve molecules from patent publication US8906904B2, “Alkoxy pyrazoles as soluble guanylate cyclase activators” (Boehringer Ingelheim International GmbH, priority 2012, dated 2014).

Data set [1] is described as follows: human liver microsome (HLM) metabolic stability assay. It is filed as in vitro ADME. To be noted: human liver microsomes; % hepatic blood flow calculated from t1/2. The procedure: The 5 time point, high-throughput human liver microsome (HLM) metabolic stability assay is designed to determine in vitro compound metabolism. Compounds are incubated with HLMs at a concentration of 1 uM, at 37° C., for a total of 60 min. The percent of compound remaining at 5, 15, 30, and 60 min is used to calculate the t½ (min), CLint (mL/min/kg), CLh (mL/min/kg), and % Qh. The assay is based on a 96-well format and can accommodate up to 92 compounds per plate (n=1).
Using the 96-well multi-channel head, the Biomek FX, equipped with a Peltier heating block/shaker, is programmed to accomplish the following steps: • 1. Pipette 175 uL of 1.15 mg/mL microsomes into each of the 96 conical inserts (Analytical Sales and Products, catalog number 96PL05) that fit into the plate of the Peltier heating block/shaker (the incubation plate) • 2. Add 5 uL of compounds from the assay plate to the microsomes and shake the mixture at 600 rpm at 42.1° C. for 10 min (a setting of 42.1° C. on the Peltier is required for the samples to incubate at 37° C.) • 3. After 10 min, prompt the user to add the NADPH plate to the deck and add 20 uL from the NADPH plate to the incubation plate to start the reaction • 4. Add 215 uL of 100%, cold acetonitrile containing an internal standard(s) to a 0 minute, 5 minute, 15 minute, 30 minute, and 60 minute “quench” plate • 5. At 0 min, 5 min, 15 min, 30 min, and 60 min into the incubation, aspirate 12 uL from the incubation mixture and add it to the quench solution to stop the reaction • 6. Add 185 uL HPLC grade water to each well of the 0, 5, 15, 30 and 60 minute quench plates to dilute compounds to the appropriate concentration for the mass spectrometer
After all time points are collected, the quench plates are sealed with 96-well pierceable plate mats or heat sealing foil and centrifuged at 3000 rpm for 15 min to pellet the microsomes.
The plates are analyzed using LC/MS/MS with electron spray ionization (ESI) and the previously determined MRM transitions. The LC method includes the following parameters:
Using an Excel template in Activitybase, the peak areas corresponding to 5, 15, 30 and 60 min are compared to the peak area at 0 min to calculate the percent of remaining compound using the following equation: Percent compound remaining=(AUC at Time t min/AUC at Time 0 min)×100 where t=0, 5, 15, 30 or 60 min.
Time (min) is plotted against the natural logarithm (Ln) of the percent compound remaining to determine the slope. The slope is used to calculate t½ (min) using the equation, t½=0.693/slope.
Preferred compounds have % Qh values of less than 24.

In data set [2] the target is T1, human soluble guanylate cyclase alpha 1 and beta 1 subunits (sGC) (Homo sapiens, UniProt Q02108+Q02153).
T1 construct: expressed in transfected cells; host or cells: Chinese hamster ovary (CHO) cells, stably transfected
T1 sequence (Q02108 1-690): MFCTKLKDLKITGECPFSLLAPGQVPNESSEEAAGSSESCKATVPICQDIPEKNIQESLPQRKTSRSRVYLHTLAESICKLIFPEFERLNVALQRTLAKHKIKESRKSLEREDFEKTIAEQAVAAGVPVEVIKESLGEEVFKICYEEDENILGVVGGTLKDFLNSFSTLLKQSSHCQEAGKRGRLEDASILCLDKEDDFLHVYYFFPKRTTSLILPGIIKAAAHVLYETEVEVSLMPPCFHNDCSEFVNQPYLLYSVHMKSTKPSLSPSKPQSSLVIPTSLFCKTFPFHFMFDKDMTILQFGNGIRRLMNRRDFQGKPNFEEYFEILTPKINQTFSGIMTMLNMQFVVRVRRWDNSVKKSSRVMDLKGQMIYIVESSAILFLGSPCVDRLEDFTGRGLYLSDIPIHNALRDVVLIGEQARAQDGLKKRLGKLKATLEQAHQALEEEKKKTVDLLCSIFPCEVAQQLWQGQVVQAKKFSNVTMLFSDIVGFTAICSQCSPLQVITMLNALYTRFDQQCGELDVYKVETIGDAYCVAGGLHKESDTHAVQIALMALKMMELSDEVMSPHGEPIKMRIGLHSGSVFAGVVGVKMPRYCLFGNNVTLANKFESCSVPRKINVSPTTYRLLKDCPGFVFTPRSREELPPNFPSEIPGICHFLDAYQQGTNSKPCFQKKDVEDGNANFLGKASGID
T1 sequence (Q02153 1-619): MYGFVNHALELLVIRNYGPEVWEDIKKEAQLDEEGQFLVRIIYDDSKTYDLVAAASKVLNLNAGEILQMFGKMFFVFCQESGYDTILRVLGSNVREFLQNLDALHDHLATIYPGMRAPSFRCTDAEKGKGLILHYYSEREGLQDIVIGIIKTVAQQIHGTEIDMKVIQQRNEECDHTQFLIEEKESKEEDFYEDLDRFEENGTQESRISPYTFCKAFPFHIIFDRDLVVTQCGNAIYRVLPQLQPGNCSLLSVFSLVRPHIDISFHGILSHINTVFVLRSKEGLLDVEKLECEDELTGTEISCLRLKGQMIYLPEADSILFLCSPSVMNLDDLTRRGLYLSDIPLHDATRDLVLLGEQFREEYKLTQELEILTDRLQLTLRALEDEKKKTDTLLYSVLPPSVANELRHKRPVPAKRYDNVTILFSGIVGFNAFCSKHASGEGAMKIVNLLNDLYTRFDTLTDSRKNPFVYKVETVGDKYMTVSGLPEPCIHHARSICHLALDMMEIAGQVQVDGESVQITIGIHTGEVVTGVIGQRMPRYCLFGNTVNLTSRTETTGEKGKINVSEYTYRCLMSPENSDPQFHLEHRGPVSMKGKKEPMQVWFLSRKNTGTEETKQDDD
The data set can be described thus: sGC cellular activator assay (cGMP, HTRF). It is filed as cell-based. To be noted: CHO cells stably expressing human sGC alpha 1/beta 1, preincubated with 40 microM ODQ; cGMP readout; assay run with and without 50% human serum, Table 2 does not say which. The procedure: The sGC cellular activator assay is performed in the presence and absence of 50% human serum (HS) using Chinese hamster ovary cells that have been stably transfected to express the human soluble guanylate cyclase alpha 1 and beta 1 subunits (sGC). Cells are preincubated with 40 microM 1H-[1,2,4]oxadiazolo[4,3-a]quinoxalin-1-one (ODQ), an sGC inhibitor, for one h in buffer containing 0.1% bovine serum albumin and 3-isobutyl-1-methylxanthine (IBMX). Concentration response curves are prepared for test compounds in DMSO. An intermediate dilution of the compounds is performed in either buffer containing IBMX or type AB HS containing IBMX. Diluted compounds are added to cells and they are incubated at room temperature for thirty min. cGMP is measured using a CisBio homogeneous time resolved fluorescence kit and the EC50 is calculated for each compound.
Representative compounds of the present invention were tested for activity the above assay. Preferred compounds have an EC50 of <1,000 nM in the above assay and more preferred compounds have an EC50<200 nM.

Data set [3] in a line: Assessment of solubility (McIlvaine buffers, 24 h shake, UPLC-UV). As to conditions: kinetic from dmso stock. It is filed as physicochemical. How it is done: Solubility is measured by the following method.
100 uL, 10 mM DMSO stock solution of each compound is prepared in a 96 well plate format. The experiment is done in single determination at 3 pH values (2.2, 4.5 and 6.8). For each pH and one reference, 40 uL of each compound is needed.
McIlvaine pH 2.2: To 2.076 g citric acid monohydrate and 0.043 g Na2HPO4×2H2O add 100 ml deionized water
McIlvaine pH 4.5: To 1.166 g citric acid monohydrate and 1.585 g Na2HPO4×2H2O add 100 ml deionized water
McIlvaine pH 6.8: To 0.476 g citric acid monohydrate and 2.753 g Na2HPO4×2H2O add 100 ml deionized water
With a suitable liquid handling device (Multipette® or a liquid handler) 390 uL of each buffer solution and 10 uL of compound is added to each well of a 96 deep well plate. The plates are covered firmly and shaken for 24 h on an over head shaker (at 54 RPM) at room temperature. The DMSO content in the final buffer is 2.5% v/v.
After 24 h the plates are centrifuged to remove droplets on the lid before opening (for ˜5 min at 2500 RPM).
The filtration is done under vacuum with Millipore 96 well filter plate. Filtrate is collected in a deep well plate and transferred to a suitable plate for UPLC analysis.
The reference plate is prepared by adding 10 uL of compound to 390 uL of 50:50 acetonitrile/water in a 96 deep well plate and transferred to a suitable plate for UPLC analysis. Wells are checked visually for precipitation, any presence noted under comments in reported results.
The samples are measured with UPLC-UV using the chromatographic method described below.
Waters Empower®2 software is used for generating Sample Sets (according to the plate layout), Sample Set Methods and Instrument Methods.
One Sample Set comprises the methods for three 96 well plates (one reference plate and two sample plates, and includes one Sample Set Method and one Instrument Method).
3. Data Processing and Analysis
The UV chromatograms collected at 254 nm are integrated and processed.
It is assumed that the compound is completely dissolved in the reference solution (50:50 acetonitrile/water)

In brackets after ≈: the same amount, converted by molar mass. Bounds are passed on as bounds.

As for `COc1c(C(=O)O)cnn1-c1cccc(-c2cccc(C)c2OCc2ccc3c(c2)CN(C2CCOCC2)C3)n1` [Compound 59], the “HLM (% Qh)” value in data set [1] is recorded as below 24 % Qh. For the same molecule, the EC50 (as a rule, the concentration needed to bring the measured effect to its halfway point) in data set [2] is 31 nM.
`CCOc1c(C(=O)O)cnn1-c1cccc(-c2cccc(C)c2OCc2ccc3c(c2)CCNC3)n1` [Compound 60]: the “HLM (% Qh)” value in data set [1] is reported as below 24 % Qh. The solubility (usually how much of the substance goes into solution per volume) at 24 h in data set [3] (pH 2.2, aqueous buffer) is 117 µg/mL (≈ 241 µM); in data set [3] (pH 4.5, aqueous buffer) it was 96 µg/mL (≈ 198 µM); in data set [3] (pH 6.8, aqueous buffer) it was 100 µg/mL (≈ 206 µM).
As for `Cc1cccc(-c2cccc(-n3ncc(C(=O)O)c3OC(C)C)n2)c1OCc1ccc2c(c1C)CCN([C@@H]1CCCOC1)C2` [Compound 116], the “HLM (% Qh)” value in data set [1] was below 24 % Qh. In data set [2], this molecule registered an EC50 of 28 nM.
The matching figures for `COc1c(C(=O)O)cnn1-c1cccc(-c2cccc(C)c2OCc2cc(C)c3c(c2C)CN(S(=O)(=O)c2ccc(C)cc2)C3)n1` [Compound 138]: 68 % Qh and 54 nM.
On the same counts, the results for `CCOc1c(C(=O)O)cnn1-c1cccc(-c2cccc(C)c2OCc2ccc3c(c2C)CCN(C(CO)CO)C3)n1` [Compound 156] are below 24 % Qh and 720 nM.
On the same counts, the results for `COc1c(C(=O)O)cnn1-c1cccc(-c2cccc(C)c2OCc2ccc3c(c2)CCN(C[C@H]2CCOC2)C3)n1` [Compound 192] are below 24 % Qh and 10 nM.
In the case of `CCOc1c(C(=O)O)cnn1-c1cccc(-c2cccc(C)c2OCc2ccc3c(c2)CN(C2CCOCC2)C3)n1` [Compound 216], the “HLM (% Qh)” value in data set [1] was below 24 % Qh. In data set [2], this molecule returned a concentration giving a half-maximal response (EC50) of 110 nM.
The matching figures for `COc1c(C(=O)O)cnn1-c1cccc(-c2cccc(C)c2OCc2cc(C)c3c(c2C)CN(CC2COCCO2)C3)n1` (centres unmarked) [Compound 246]: below 24 % Qh and 6.5 nM.
On to `COc1c(C(=O)O)cnn1-c1cccc(-c2cccc(C)c2OCc2cc(C)c3c(c2)CN(C2CCOCC2)C3)n1` [Compound 255], for which the “HLM (% Qh)” value in data set [1] is given as below 24 % Qh. In data set [2], the response was half-maximal at 9.5 nM (EC50).
The matching figures for `COc1c(C(=O)O)cnn1-c1cccc(-c2cccc(C)c2OCc2ccc3c(c2C)CN(C2CCOCC2)C3)n1` [Compound 256]: below 24 % Qh and 14 nM.
The matching figures for `COc1c(C(=O)O)cnn1-c1cccc(-c2cccc(C)c2OCc2ccc3c(c2C)CN(C2COC2)C3)n1` [Compound 257]: below 24 % Qh and 14 nM.
On the same counts, the results for `COc1c(C(=O)O)cnn1-c1cccc(-c2cccc(C)c2OCc2cc(C)c3c(c2)CN(C2COC2)C3)n1` [Compound 258] are below 24 % Qh and 15 nM.
